Results published in patent publication US20220249599A1, “TREATMENT OF IMPLANTS WITH ENGINEERED ANTIMICROBIAL AMPHIPHILIC PEPTIDES” (priority 2018, published 2022).
Values joined by “and” are separate entries in the source; they are usually repeats but may differ in a detail not shown here. Equal values may be shown once. Read-outs that look alike come from different tables or passages of the source. Marks after values point to notes of the source that are not given here. Ends that are not written are not given here.

Tests used:
[1] = monkey
Method: Animals will be obtained from the Test Facility's colony of adult male cynomolgous monkeys (Macaca fascicularis) of Chinese origin. Animals will be weighed prior to dosing.
Intravenous administration will be via 30 minute infusion into a temporary percutaneous catheter placed into a saphenous vein. Prior to and following dose administration, the catheter will be flushed with 0.5 mL saline prior to removal. All dosing syringes will be weighed prior to and following dosing.
Serial blood samples will be collected via femoral vein (cephalic or saphenous, as necessary). Approximately 1 mL blood samples will be collected into K2EDTA tubes.
Blood samples will be collected into K2EDTA tubes and stored on wet ice. Whole blood will be processed to plasma by centrifugation (2400-2700 rpm at 5° C.) within 30 minutes of collection. Plasma samples will be split into 2 equal aliquots and stored at −80° C. until analysis.
(§2) Prior to extraction, a known concentration of a mass-adjusted internal standard (IS) will be added to assess recovery and allow for quantitation. Purified samples will be further subjected to high-performance liquid chromatography (HPLC) using C18 300 or 130 angstrom columns prior to MS/MS analysis. Multiple charge states will be observed by MS, so MS/MS will be employed to enable multiple reaction monitoring (MRM) analyses to determine the most MRM transitions with the highest signal-to-noise gain. Compound plasma concentrations will be determined by comparing to and compensating with co-purified IS peak intensity and validated calibrated standard curves.
Toxicokinetic parameters will be calculated using non-compartmental methods as implemented in the Phoenix® WinNonlin® ver. 6.3 comprehensive TK/PK analysis software program (Pharsight Corporation; Mountain View, Calif.) using an IV infusion model. Toxicokinetic analysis will be conducted using a 30-minute intravenous infusion time. Therefore, 30 minutes will be added to each sample time point postdose to obtain nominal time for TK analysis. Nominal times and dosage levels will be used for all calculations. Values below the lower limit of quantitation (BLQ) will be assigned a value of zero for the toxicokinetic calculations. Microsoft® Excel® 2013 will be used for receipt of bioanalytical data, minor formatting, including setting BLQ values to “0”, transfer into WinNonlin® for TK analysis, and calculation of the mean when an approximated value will be excluded. All plasma concentration data from all animals will be included in the analysis.

[2] = tested on: Escherichia coli (n = 101); format: cell-based; conditions: n = 101
Method: (§1) The clinical isolates were obtained from USA hospitals. […] Plates were incubated at 35° C. overnight.

[3] = tested on: Acinetobacter baumannii ATCC BAA-1797 (MDR); assay: microbe, parasite or virus in culture; format: cell-based; conditions: ATCC BAA-1797
Procedure, shortened: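 CLSI broth microdilution; MHB II + 0.002% P80; 2-fold peptide series, top 32 mcg/mL final; 35° C., 16–20 hrs; MIC = lowest conc. with no visible growth. Peptides in PBS; SEQ ID NO:5 and 8 from DMSO stocks, 2.5% DMSO at first dilution.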

[4] = mouse
Text: Male CD-1 mice will be received from an approved vendor and allowed to acclimate for a minimum of two days. Fasting will be not required.
All dosing syringes will be weighed prior to and following dosing. IV doses will be administered as a slow bolus (over ˜30 seconds) via direct venipuncture of a tail vein. All animals will be observed at dosing and each scheduled collection. All abnormalities will be recorded.
Terminal blood samples will be collected via cardiac puncture following inhalation anesthesia.
Sample Processing and Storage: Blood samples will be collected into K2EDTA tubes and stored on wet ice. Whole blood will be processed to plasma by centrifugation (3500 rpm at 5° C.) within 30 minutes of collection. Plasma samples will be split into 2 equal aliquots and each transferred into 96 well plates (matrix tubes) and stored at −80° C. until analysis. Administered doses will be determined gravimetrically.
as §2
Pharmacokinetic parameters will be calculated using non-compartmental methods as implemented in the Phoenix® WinNonlin® ver. 6.3 comprehensive TK/PK analysis software program (Pharsight Corporation; Mountain View, Calif.) using an IV infusion model. Pharmacokinetic analysis will be conducted using a 30-minute intravenous infusion time. Therefore, 30 minutes will be added to each sample time point postdose to obtain nominal time for TK analysis. Nominal times and dosage levels will be used for all calculations. Values below the lower limit of quantitation (BLQ) will be assigned a value of zero for the pharmacokinetic calculations. Microsoft® Excel® 2013 will be used for receipt of bioanalytical data, minor formatting, including setting BLQ values to “0”, transfer into WinNonlin® for PK analysis, and calculation of the mean when an approximated value will be excluded. All plasma concentration data from all animals will be included in the analysis. Graphical presentations will be performed using Microsoft® Excel® 2013.

[5] = tested on: Staphylococcus aureus (n = 104); assay: microbe, parasite or virus in culture; format: cell-based
Method: as §1

[6] = tested on: Enterobacter spp. (n = 102); format: cell-based, Enterobacter aerogenes and E. cloacae
Method: as §1

[7] = IV infusion 1 mg/kg, individual animals
[8] = IV infusion 3 mg/kg, individual animals
[9] = IV infusion 10 mg/kg, individual animals
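For AUC0-24hr in this document: adult male cynomolgus monkeys given a 30-min IV infusion, plasma drug levels quantified by LC-MS/MS against internal standard, parameters from non-compartmental IV infusion model analysis.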
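For AUCinf Extrapolated in this document: adult male cynomolgus monkeys given a 30-min IV infusion, plasma drug levels quantified by LC-MS/MS against internal standard, parameters from non-compartmental IV infusion model analysis.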
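For AUClast in this document: adult male cynomolgus monkeys given a 30-min IV infusion, plasma drug levels quantified by LC-MS/MS against internal standard, parameters from non-compartmental IV infusion model analysis.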
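For Cmax in this document: adult male cynomolgus monkeys given a 30-min IV infusion, plasma drug levels quantified by LC-MS/MS against internal standard, parameters from non-compartmental IV infusion model analysis.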

RRWVRRVRRVWRRVVRVVRRWVRR-NH2 (C-terminus assumed) [SEQ ID NO: 1]
AUC0-24hr ([1]; IV infusion 1 mg/kg, Mean): 1090 ng·h/mL | AUCinf ([1]; IV infusion 1 mg/kg, Mean): 1170 ng·h/mL | AUCinf Extrapolated ([1]; IV infusion 1 mg/kg, Mean): 10.0% | AUClast ([1]; IV infusion 1 mg/kg, Mean): 983 ng·h/mL | Cmax ([1]; IV infusion 1 mg/kg, Mean): 1710 ng/mL | Dose Normalized AUClast ([1]; IV infusion 1 mg/kg, Mean): 983 | Dose Normalized Cmax ([1]; IV infusion 1 mg/kg, Mean): 1710 | T1/2 ([1]; IV infusion 1 mg/kg, Mean): 2 h | Vss ([1]; IV infusion 1 mg/kg, Mean): 1380 mL/kg | AUC0-24hr [1, 7]: 821 ng·h/mL and 1820 ng·h/mL and 616 ng·h/mL | AUCinf [1, 7]: 938* hr*ng/mL and 1730 hr*ng/mL and 610 hr*ng/mL | AUClast [1, 7]: 740 ng·h/mL and 1610 ng·h/mL and 595 ng·h/mL | CL [1, 7]: 1070* mL/hr/kg and 579 mL/hr/kg and 1640 mL/hr/kg | Cmax [1, 7]: 1460 ng/mL and 2660 ng/mL and 997 ng/mL | Dose Normalized AUClast [1, 7]: 740 and 1610 and 595 | Dose Normalized Cmax [1, 7]: 1460 and 2660 and 997 | Tmax [1, 7]: 2 min | Vss [1, 7]: 1530* mL/kg and 1260 mL/kg and 1510 mL/kg | AUC0-24hr ([1]; IV infusion 3 mg/kg, Mean): 7580 ng·h/mL | AUCinf ([1]; IV infusion 3 mg/kg, Mean): 7710 ng·h/mL | AUCinf Extrapolated ([1]; IV infusion 3 mg/kg, Mean): 1.5% | AUClast ([1]; IV infusion 3 mg/kg, Mean): 7580 ng·h/mL | Cmax ([1]; IV infusion 3 mg/kg, Mean): 10300 ng/mL | Dose Normalized AUClast ([1]; IV infusion 3 mg/kg, Mean): 2530 | Dose Normalized Cmax ([1]; IV infusion 3 mg/kg, Mean): 3450 | T1/2 ([1]; IV infusion 3 mg/kg, Mean): 5.2 h | Vss ([1]; IV infusion 3 mg/kg, Mean): 1290 mL/kg | AUC0-24hr [1, 8]: 6650 ng·h/mL and 11000 ng·h/mL and 5120 ng·h/mL | AUCinf [1, 8]: 6730 ng·h/mL and 11200 ng·h/mL and 5180 ng·h/mL | AUCinf Extrapolated [1, 8]: 1.2% and 2.3% and 1.1% | AUClast [1, 8]: 6650 ng·h/mL and 11000 ng·h/mL and 5120 ng·h/mL | CL [1, 8]: 446 mL/h/kg and 267 mL/h/kg and 580 mL/h/kg | Cmax [1, 8]: 6830 ng/mL and 15500 ng/mL and 8690 ng/mL | Dose Normalized AUClast [1, 8]: 2220 and 3660 and 1710 | Dose Normalized Cmax [1, 8]: 2280 and 5170 and 2900 | T1/2 [1, 8]: 4.4 h and 6.3 h and 5 h | Tmax [1, 8]: 2 min and 1.5 min | Vss [1, 8]: 1580 mL/kg and 905 mL/kg and 1370 mL/kg | AUC0-24hr ([1]; IV infusion 10 mg/kg, Mean): 50300 ng·h/mL | AUCinf ([1]; IV infusion 10 mg/kg, Mean): 50800 ng·h/mL | AUCinf Extrapolated ([1]; IV infusion 10 mg/kg, Mean): 1.3% | AUClast ([1]; IV infusion 10 mg/kg, Mean): 50300 ng·h/mL | Cmax ([1]; IV infusion 10 mg/kg, Mean): 38200 ng/mL | Dose Normalized AUClast ([1]; IV infusion 10 mg/kg, Mean): 5030 | Dose Normalized Cmax ([1]; IV infusion 10 mg/kg, Mean): 3820 | T1/2 ([1]; IV infusion 10 mg/kg, Mean): 4.6 h | Vss ([1]; IV infusion 10 mg/kg, Mean): 1260 mL/kg | AUCinf Extrapolated [1, 9]: 1.0% and 1.8% and 0.99% | Cmax [1, 9]: 26000 ng/mL and 24300 ng/mL and 64300 ng/mL | Dose Normalized Cmax [1, 9]: 2600 and 2430 and 6430 | T1/2 [1, 9]: 4.3 h and 4.9 h and 4.6 h | Tmax [1, 9]: 2 min | MIC90 [2]: 4 µg/mL | Mode (MIC) [2]: 2 µg/mL | MIC [3]: 4 µg/mL | AUCIinf_D ([4]; IV Dose 3 mg/kg): <3500 kg·ng·h/mL/ng | AUCinf ([4]; IV Dose 3 mg/kg): <3500 ng·h/mL | Extrapolated ([4]; IV Dose 3 mg/kg): ~0.5% | MRTlast ([4]; IV Dose 3 mg/kg): ~0.5 h | T1/2 ([4]; IV Dose 3 mg/kg): ~8 h | AUCIinf_D ([4]; IV Dose 15 mg/kg): 3589 kg·ng·h/mL/ng | Extrapolated ([4]; IV Dose 15 mg/kg): 0.49% | MIC range ([5]; S. aureus MRSA isolates, n 104): 1 to 16 µg/mL | MIC range ([5]; Staphylococcus aureus (n = 104), all methicillin-resistant): 1 to 16 µg/mL | MIC50 ([5]; n = 104): 4 µg/mL | Mode (MIC) ([5]; n = 104): 4 µg/mL | Mode (MIC) [6]: 16 µg/mL
